IC50 data for one compound are collected here from PMC2139785 (The Journal of Cell Biology, 1997).

Each structure is given as a SMILES string.

Broadly, the IC50 is the concentration that gives 50% inhibition. Low values mean greater potency in that assay, high ones weaker potency in that assay.

The target of this test is p62^cplx-associated PI3-kinase (100-kD catalytic subunit). Put plainly: PI3-kinase lipid kinase assay. The test is classed as biochemical, Rattus norvegicus.

On to `COC[C@H]1OC(=O)c2coc3c2[C@@]1(C)C1=C(C3=O)[C@@H]2CCC(=O)[C@@]2(C)C[C@H]1OC(C)=O` [wortmannin], for which the IC50 was ~3.5 µM.
